Key:
[1] = system: MRSA (SA 180-F strain); test: Early biofilm formation, MTT assay; type: cell-based, methicillin-resistant Staphylococcus aureus; design: key: ↓: Decrease in the parameter (optical density) compared to the negative control; −: No decrease in the parameter; ↑: Reverse effect (increase in the optical density compared to the control); details: 24 h, 0.3% MTT 2 h 37 °C, OD 595 nm
Procedure: (§1) After 24 h of incubation, the medium was removed. To assess the total biofilm biomass, the wells were rinsed with sterile PBS solution and stained with 0.1% crystal violet. The dye bound to the surface was then removed using 95% ethanol. To assess the presence of metabolically active cells, 0.3% MTT (PanEco Ltd., Moscow, Russia) solution was added to each well, and the plates were incubated at 37 °C for 2 h. After incubation, the MTT solution was removed, 150 µL of DMSO (Chimmed, Moscow, Russia) and 25 µL of glycine buffer were added to each well, and the plates were left at room temperature for 15 min. The resulting solutions were transferred to a flat-bottom 96-well plate, and optical density was measured at 595 nm.

[2] = system: E. coli (MG1655 strain); test: Mature biofilms, crystal violet staining; type: cell-based, Escherichia coli; design: key: ↓: Decrease in the parameter (optical density) compared to the negative control; −: No decrease in the optical density; ↑: Reverse effect (increase in the optical density compared to the control); details: mature biofilm: peptide added after 24 h, further 24 h, 0.01-10 mg/mL
Procedure: as §1
(§2) A stationary-phase culture of the tested strain was diluted 100-fold in fresh medium (200 µL per well) and added to the wells of a 96-well round-bottom plate. […] After another 24 h, the medium was removed and the wells were rinsed with sterile PBS to eliminate planktonic cells. The procedures for assessing total biofilm biomass and cell metabolic activity using crystal violet and MTT assays were performed in the same manner as described above for early-stage biofilm experiments.

[3] = system: E. coli (MG1655 strain); test: Mature biofilms, MTT assay; type: cell-based, Escherichia coli; design: key: ↓: Decrease in the parameter (optical density) compared to the negative control; −: No decrease in the parameter; ↑: Reverse effect (increase in the optical density compared to the control); details: mature biofilm: peptide added after 24 h, further 24 h, 0.01-10 mg/mL
Procedure: as §1, §2

[4] = system: E. coli (MG1655 strain); test: Mature biofilms, crystal violet staining; type: cell-based, Escherichia coli; design: key: ↓: Decrease in the parameter (optical density) compared to the negative control; −: No decrease in the parameter; ↑: Reverse effect (increase in the optical density compared to the control); details: mature biofilm: peptide added after 24 h, further 24 h; 0.01-10 mg/mL
Procedure: as §1, §2

[5] = system: S. aureus (129B strain); test: Antibacterial activity in liquid medium (optical density); type: cell-based, Staphylococcus aureus; design: key to change of optical density vs negative control: ↓: Decrease in the parameter (optical density) compared to the negative control; −: No decrease in the parameter; ↑: Reverse effect (increase in the optical density compared to the control); details: 24 h, 37 °C; for change of optical density vs negative control: OD 595 nm
Procedure: To evaluate the antibacterial activity of peptides in liquid culture, a stationary-phase culture of the tested bacterial strain was diluted 100-fold in fresh medium containing peptides or gentamicin (positive control) at the specified concentrations. A total volume of 200 µL was added to each well of a 96-well round-bottom microtiter plate. After 24 h of incubation at 37 °C, the samples were transferred to a flat-bottom 96-well microtiter plate, and the optical density was measured at 595 nm. Separately, the optical density of medium containing peptides but no bacteria was measured. These values were used as baseline (zero) readings for subsequent data analysis.

[6] = system: P. aeruginosa (2943 strain); test: Mature biofilms, crystal violet staining; type: cell-based, Pseudomonas aeruginosa; design: key: ↓: Decrease in the parameter (optical density) compared to the negative control; −: No decrease in the parameter; ↑: Reverse effect (increase in the optical density compared to the control); details: mature biofilm: peptide added after 24 h, further 24 h; 0.01-10 mg/mL
Procedure: as §1, §2

[7] = system: MRSA (SA 180-F strain); test: Antibacterial activity on 0.7% agar (inhibition zone); type: cell-based, methicillin-resistant Staphylococcus aureus; design: key: +: The presence of a bacterial growth inhibition zone; −: The absence of a bacterial growth inhibition zone; details: drop on 0.7% agar, 24 h
Procedure: Drops of the samples were applied to the surface of solidified 0.7% agar at the concentrations indicated in Table 2 and Supplementary S2 (Figures S1–S4). After 24 h of incubation, the results were evaluated based on the presence or absence (+/−) of inhibition zones.
Once the agar solidified, drops of peptide samples at the concentrations 1, 0.1, 0.01, and 0.001 mg/mL were applied to the agar surface.

[8] = system: E. coli (MG1655 strain); test: Early biofilm formation, MTT assay; type: cell-based, Escherichia coli; design: key: ↓: Decrease in the parameter (optical density) compared to the negative control; −: No decrease in the parameter; ↑: Reverse effect (increase in the optical density compared to the control); details: 24 h, 0.3% MTT 2 h 37 °C, OD 595 nm
Procedure: as §1

[9] = system: MRSA (SA 180-F strain); test: Early biofilm formation, crystal violet staining; type: cell-based, methicillin-resistant Staphylococcus aureus; design: key: ↓: Decrease in the parameter (optical density) compared to the negative control; −: No decrease in the parameter; ↑: Reverse effect (increase in the optical density compared to the control); details: peptide present from inoculation, 24 h, OD 595 nm
Procedure: as §1

[10] = system: MRSA (SA 180-F strain); test: Mature biofilms, crystal violet staining; type: cell-based, methicillin-resistant Staphylococcus aureus; design: key: ↓: Decrease in the parameter (optical density) compared to the negative control; −: No decrease in the optical density; ↑: Reverse effect (increase in the optical density compared to the control); details: mature biofilm: peptide added after 24 h, further 24 h; 0.01-10 mg/mL
Procedure: as §1, §2

RKKRRQRRRGGGGVVVHINGGKFGGGGSRQIKIWFQNRRMKWKK [R44K^S]
change of optical density after MTT assay vs negative control [1]: ↑
change of optical density after crystal violet staining vs negative control ([2]; listed as R44K^P): −
change of optical density after MTT assay vs negative control [3]: ↑
change of optical density after crystal violet staining vs negative control [4]: ↑
concentration given with ↓ (decrease in optical density) [5]: 10 mg/mL
change of optical density vs negative control [5]: ↓ (10 mg/mL)
change of optical density vs negative control ([5]; listed as R44K^P): ↑
change of optical density after crystal violet staining vs negative control [6]: ↑
bacterial growth inhibition zone ([7]; 0.001 mg/mL): −
bacterial growth inhibition zone ([7]; 0.01 mg/mL): −
bacterial growth inhibition zone ([7]; 0.1 mg/mL): −
bacterial growth inhibition zone ([7]; 1 mg/mL): +
bacterial growth inhibition zone ([7]; 1 mg/mL, listed as R44K^P): −
change of optical density after MTT assay vs negative control ([8]; listed as R44K^P): ↑
change of optical density after crystal violet staining vs negative control [9]: ↓ (1 mg/mL)
change of optical density after crystal violet staining vs negative control ([9]; listed as R44K^P): ↓ (10 mg/mL)

ITDFGIFIGLGGGGSRQIKIWFQNRRMKWKK [I31K^P]
change of optical density after MTT assay vs negative control [1]: ↑
change of optical density after crystal violet staining vs negative control [2]: −
concentration given with ↓ (decrease in optical density) [5]: 0.1 mg/mL
change of optical density vs negative control [5]: ↓ (0.1 mg/mL)
change of optical density after crystal violet staining vs negative control [6]: ↑
change of optical density after MTT assay vs negative control [8]: ↑

RKKRRQRRRGGGGITDFGIFIGL [R23L^P]
change of optical density after MTT assay vs negative control [1]: ↑
change of optical density after crystal violet staining vs negative control [4]: ↑
concentration given with ↓ (decrease in optical density) [5]: 1 mg/mL
change of optical density vs negative control [5]: ↓ (1 mg/mL)
change of optical density after crystal violet staining vs negative control [10]: −
change of optical density after crystal violet staining vs negative control [6]: ↑
bacterial growth inhibition zone ([7]; 0.001 mg/mL): −
bacterial growth inhibition zone ([7]; 0.01 mg/mL): −
bacterial growth inhibition zone ([7]; 0.1 mg/mL): −
bacterial growth inhibition zone ([7]; 1 mg/mL): +
change of optical density after MTT assay vs negative control [8]: ↑
change of optical density after crystal violet staining vs negative control [9]: ↓ (10 mg/mL)

VTDFGVFVEIGGGGSRQIKIWFQNRRMKWKK [V31K^T, amyloidogenic fragment of S1 of T. thermophilus linked via glycine-rich linker to antennapedia peptide]
change of optical density after MTT assay vs negative control [1]: ↑
change of optical density after crystal violet staining vs negative control ([2]; listed as V31K^S): −
change of optical density after MTT assay vs negative control ([3]; listed as V31K^S): ↑
change of optical density after crystal violet staining vs negative control [4]: ↑
change of optical density vs negative control [5]: −
change of optical density vs negative control ([5]; listed as V31K^S): ↑
change of optical density after crystal violet staining vs negative control [10]: −
change of optical density after crystal violet staining vs negative control [6]: ↑
bacterial growth inhibition zone ([7]; 0.001 mg/mL): −
bacterial growth inhibition zone ([7]; 0.01 mg/mL): −
bacterial growth inhibition zone ([7]; 0.1 mg/mL): −
bacterial growth inhibition zone ([7]; 1 mg/mL): −
change of optical density after crystal violet staining vs negative control [9]: ↑
change of optical density after crystal violet staining vs negative control ([9]; listed as V31K^S): ↓ (10 mg/mL)

RKKRRQRRRGGGGVTDFGVFVEI [R23I^T, TAT cell-penetrating peptide linked via glycine linker to amyloidogenic fragment of S1 ribosomal protein of T. thermophilus]
change of optical density after MTT assay vs negative control [1]: ↑
change of optical density after crystal violet staining vs negative control [2]: −
change of optical density after MTT assay vs negative control [3]: ↑
change of optical density vs negative control [5]: ↑
change of optical density after crystal violet staining vs negative control [10]: −
bacterial growth inhibition zone ([7]; 0.001 mg/mL): −
bacterial growth inhibition zone ([7]; 0.01 mg/mL): −
bacterial growth inhibition zone ([7]; 0.1 mg/mL): −
bacterial growth inhibition zone ([7]; 1 mg/mL): +
change of optical density after MTT assay vs negative control [8]: ↑
